“Also recorded” adds a separate entry of the source. Counter-ions that a name gives are not always drawn.
What was measured:
[1] = three-point bending test (flexural strength, toughness) of the temporary crown material; type: physicochemical; settings: for toughness (in words): FIG. 5
Procedure: First, the temporary crown material was filled into a stainless steel mold (a length of 25 millimeters (mm), a width of 2 mm and a height of 2 mm). After the temporary crown was completely cured, the crown was immersed in ultrapure water and placed in an oven at 37° C. for 24 hours. […] The flexural strength was calculated by the following formula: […]
wherein F was the force (N) under the maximum load; b was the average width (mm) of the test piece; h was the average thickness (mm) of the test piece; and l was the pitch (mm) between the two lower fulcrums.
In addition, the toughness of the temporary crown is the integral area under the stress-strain curve, in which stress is put on Y-axis and strain is put on X-axis. The unit of the toughness is […]

fibroblasts (L929) = test: cytotoxicity test (MTT) with extract of the cured temporary crown material; type: cell-based; settings: L929 co-cultured with material extract (0.2 g/ml) for 24 hours and 72 hours; plasticizer in crown material; FIG. 3
Procedure: First, 2 grams (g) of the mixture of the powder reagent and the liquid reagent were taken to be cured and then immersed in 10 ml of MEM culture medium at a temperature of 37° C. for 24 hours. Afterwards, an extract of the mixture was taken, in which the extraction ratio was 0.2 g/ml.
Further, fibroblasts (L929) were seeded in the 96-well plates and incubated for 1 day.
Afterwards, the cell culture media were removed, and then a material extract containing 10% fetal bovine serum (FBS) after filtration and a culture medium without the material extract as the control were added, respectively, and then incubated for 24-72 hours. Subsequently, the culture media were removed again, and then phosphate buffered saline (PBS) washes were performed, followed by PBS removal. The serum-free culture medium was formulated as a reaction reagent of MTT ((3-(4,5-dimethylthiazol-2-yl)-2,5-diphenyltetrazolium bromide)), and the ratio of the culture medium to the MTT solution was 1 mg/ml. Each well plate was added with 50 μl of MTT reagent and then placed in the incubator. After 2 hours, the MTT reagent was removed, and 100 μl of antifreezing agent (DMSO) was added. The 96-well plate was shaken for 30 minutes using a rotary shaker. After the reaction was completed, the absorbance at a wavelength of 570 nm was measured by an ELISA reader. […]

[2] = surface hardness test of temporary crowns (micro hardness tester); type: physicochemical; settings: plasticizer added to temporary crown; load 4.903 N for 10 seconds; FIG. 6
Procedure: First, the temporary crown material was filled into a stainless steel mold (a diameter of 15 mm and a thickness of 1 mm). After the temporary crown was completely cured, the sample was immersed in ultrapure water and placed in an oven at 37° C. After 24 hours, the sample to be tested was taken out and placed in a micro hardness tester (HMV-2 series), and the load applied to the sample by the diamond indenter was 4.903 N for 10 seconds. Finally, the average length of the diagonal indentation on the surface of the sample was measured to calculate the surface hardness of the temporary crown. The calculation formula was: […]
wherein d is the length of the indentation, F is the load, and g is the gravity constant.

[3] = plasticizer added to temporary crown
[4] = temporary crown with 2% plasticizer
[5] = temporary crown with 5% plasticizer
[6] = temporary crown with 10% plasticizer
[7] = temporary crown with 15% plasticizer

Elongation at break [1, 4] [%] | Flexural modulus [1, 4] [MPa] | Maximum stress [1, 4] [MPa] | Strain [1, 4] [%] | Toughness [1, 4] [MPa] | Elongation at break [1, 5] [%] | Flexural modulus [1, 5] [MPa] | Maximum stress [1, 5] [MPa] | Strain [1, 5] [%] | Toughness [1, 5] [MPa] | Elongation at break [1, 6] [%] | Flexural modulus [1, 6] [MPa] | Maximum stress [1, 6] [MPa] | Strain [1, 6] [%] | Toughness [1, 6] [MPa] | Elongation at break [1, 7] [%] | Flexural modulus [1, 7] [MPa] | Maximum stress [1, 7] [MPa] | Strain [1, 7] [%] | Toughness [1, 7] [MPa] | SMILES | other results
7.94 | 2463.34 | 85.24 | 7.72 | 59.89 | 8.24 | 2362.61 | 81.98 | 7.82 | 57.21 | 6.50 | 2138.92 | 70.29 | 6.48 | 28.07 | 5.70 | 1897.78 | 55.59 | 5.71 | 17.39 | CCCCOC(=O)CC(CC(=O)OCCCC)(OC(C)=O)C(=O)OCCCC [ATBC, acetyl tributyl citrate] | flexural strength (in words) ([1]; plasticizer added to temporary crown, FIG. 4): can increase the flexural strength; toughness (in words) [1, 3]: can increase the toughness; cytotoxicity / cell survival rate (fibroblasts (L929)): less than that of adding plasticizers DBP and TEC; also recorded: less toxicity to cells
10.43 | 2173.29 | 80.70 | 8.94 | 77.26 | 13.14 | 2308.16 | 83.40 | 9.20 | 115.80 | 7.10 | 2029.32 | 69.93 | 7.09 | 30.88 | 5.34 | 1790.09 | 46.31 | 5.36 | 11.98 | CCOC(=O)CC(O)(CC(=O)OCC)C(=O)OCC [TEC, triethyl citrate] | toughness (in words) [1, 3]: can increase the toughness; cytotoxicity / cell survival rate (fibroblasts (L929)): not significantly improved

SMILES | Elongation at break [1, 4] [%] | Flexural modulus [1, 4] [MPa] | Maximum stress [1, 4] [MPa] | Strain [1, 4] [%] | Toughness [1, 4] [MPa] | Elongation at break [1, 5] [%] | Flexural modulus [1, 5] [MPa] | Maximum stress [1, 5] [MPa] | Strain [1, 5] [%] | Toughness [1, 5] [MPa] | Elongation at break [1, 6] [%] | Flexural modulus [1, 6] [MPa] | Maximum stress [1, 6] [MPa] | Strain [1, 6] [%] | Toughness [1, 6] [MPa] | Elongation at break [1, 7] [%] | Flexural modulus [1, 7] [MPa] | Maximum stress [1, 7] [MPa] | Strain [1, 7] [%] | Toughness [1, 7] [MPa] | other results
CCCCOC(=O)c1ccccc1C(=O)OCCCC [DBP, dibutyl phthalate, reference compound] | 10.86 | 1215.08 | 66.56 | 10.75 | 28.74 | 11.43 | 1199.73 | 62.75 | 10.75 | 31.14 | 9.56 | 1083.70 | 54.11 | 9.75 | 18.94 | 9.68 | 997.11 | 46.25 | 9.50 | 17.35 | surface hardness (in words) [2]: contributes to the increase of surface hardness
